Experimental data from ChEMBL document CHEMBL1127170, “Cyclooxygenase and 5-lipoxygenase inhibitory activity of 2,6 di-t-butylphenols linked by a sulfur atom to 1,3,4-thiadiazoles and 1,3,4-oxadiazoles” (Bioorg Med Chem Lett, 1993).

Experiments:
[1] = biological target: T1, Cyclooxygenase (Rattus norvegicus, UniProt P35355+Q63921); assay: The compound was tested for the inhibition of Prostaglandin G/H synthase in intact basophilic rat leukemia cells
T1 sequence (P35355 whole entry): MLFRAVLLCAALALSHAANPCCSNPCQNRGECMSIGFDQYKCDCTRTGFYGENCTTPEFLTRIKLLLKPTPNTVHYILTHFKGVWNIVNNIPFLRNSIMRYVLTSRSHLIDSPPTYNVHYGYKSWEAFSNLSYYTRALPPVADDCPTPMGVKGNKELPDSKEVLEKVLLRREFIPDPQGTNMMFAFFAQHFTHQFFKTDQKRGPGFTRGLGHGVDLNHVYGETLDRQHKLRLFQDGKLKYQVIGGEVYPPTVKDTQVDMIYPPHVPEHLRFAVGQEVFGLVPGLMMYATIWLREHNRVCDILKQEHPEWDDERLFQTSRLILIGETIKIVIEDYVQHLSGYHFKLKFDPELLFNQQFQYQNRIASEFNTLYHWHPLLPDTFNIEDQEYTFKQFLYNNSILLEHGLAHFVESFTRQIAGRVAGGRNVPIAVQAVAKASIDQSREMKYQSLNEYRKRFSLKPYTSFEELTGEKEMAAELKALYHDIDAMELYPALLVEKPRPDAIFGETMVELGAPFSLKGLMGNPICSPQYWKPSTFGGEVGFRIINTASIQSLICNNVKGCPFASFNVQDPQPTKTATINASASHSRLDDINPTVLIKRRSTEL
T1 sequence (Q63921 whole entry): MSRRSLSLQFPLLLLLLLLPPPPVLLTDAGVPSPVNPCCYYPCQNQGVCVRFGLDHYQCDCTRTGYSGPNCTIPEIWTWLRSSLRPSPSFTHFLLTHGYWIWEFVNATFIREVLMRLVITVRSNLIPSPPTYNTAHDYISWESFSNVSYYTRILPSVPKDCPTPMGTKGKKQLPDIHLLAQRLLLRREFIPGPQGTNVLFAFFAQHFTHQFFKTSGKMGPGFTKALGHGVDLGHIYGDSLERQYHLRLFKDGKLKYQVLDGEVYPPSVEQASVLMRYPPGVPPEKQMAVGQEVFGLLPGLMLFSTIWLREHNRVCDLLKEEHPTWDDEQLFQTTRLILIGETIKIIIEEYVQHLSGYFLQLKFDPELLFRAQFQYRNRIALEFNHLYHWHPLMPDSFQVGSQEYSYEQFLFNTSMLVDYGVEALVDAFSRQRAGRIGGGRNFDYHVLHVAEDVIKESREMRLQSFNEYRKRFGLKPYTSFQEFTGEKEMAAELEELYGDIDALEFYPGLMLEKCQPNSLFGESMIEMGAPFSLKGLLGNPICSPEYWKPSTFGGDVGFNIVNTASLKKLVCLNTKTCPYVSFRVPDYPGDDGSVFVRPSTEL

[2] = biological target: T2, Cyclooxygenase (Rattus norvegicus) (UniProt P35355+Q63921); assay: The compound was tested for the inhibition of Prostaglandin G/H synthase in intact basophilic rat leukemia cells at 10 uM
[3] = biological target: T3, Polyunsaturated fatty acid 5-lipoxygenase (Rattus norvegicus) (UniProt P12527); assay: The compound was tested for the inhibition of 5-lipoxygenase in intact basophilic rat leukemia cells at 10 uM; format: cell-based; conditions: RBL-1
T3 sequence (whole entry): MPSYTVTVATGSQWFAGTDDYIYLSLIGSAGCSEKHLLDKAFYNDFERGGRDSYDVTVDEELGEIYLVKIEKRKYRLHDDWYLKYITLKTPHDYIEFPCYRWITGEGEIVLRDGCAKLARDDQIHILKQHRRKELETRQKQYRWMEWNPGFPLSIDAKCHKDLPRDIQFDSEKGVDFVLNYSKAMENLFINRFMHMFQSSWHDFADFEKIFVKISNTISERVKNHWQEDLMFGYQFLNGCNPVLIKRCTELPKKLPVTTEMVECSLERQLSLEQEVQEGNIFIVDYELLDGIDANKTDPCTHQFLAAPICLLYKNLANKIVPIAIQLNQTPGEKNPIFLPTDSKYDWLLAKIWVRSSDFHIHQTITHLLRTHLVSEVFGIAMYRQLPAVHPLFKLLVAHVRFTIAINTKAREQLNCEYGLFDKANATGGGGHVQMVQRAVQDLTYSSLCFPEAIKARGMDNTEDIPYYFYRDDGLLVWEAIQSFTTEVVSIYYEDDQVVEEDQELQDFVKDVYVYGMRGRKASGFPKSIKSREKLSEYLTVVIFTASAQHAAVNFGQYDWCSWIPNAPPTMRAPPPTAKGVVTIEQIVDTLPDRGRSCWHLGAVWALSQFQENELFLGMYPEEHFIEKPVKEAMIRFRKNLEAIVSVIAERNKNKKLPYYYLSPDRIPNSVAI

[4] = biological target: T4, Polyunsaturated fatty acid 5-lipoxygenase (Rattus norvegicus, UniProt P12527); assay: The compound was tested for the inhibition of 5-lipoxygenase in intact basophilic rat leukemia cells; format: cell-based, RBL-1
T4 sequence (P12527 whole entry): T3 sequence (whole entry)

[5] = biological target: T2, Cyclooxygenase (Rattus norvegicus); assay: The compound was tested for the inhibition of Prostaglandin G/H synthase in intact basophilic rat leukemia cells at 16 uM
[6] = biological target: T3, Polyunsaturated fatty acid 5-lipoxygenase (Rattus norvegicus); assay: The compound was tested for the inhibition of 5-lipoxygenase in intact basophilic rat leukemia cells at 1.0 uM; format: cell-based; conditions: RBL-1

Row | Structure (SMILES) | IC50 [1] [µM] | IC50 [4] [nM] | inhibition [5] [%] | also measured
1 | CC(C)(C)c1cc(Sc2nnc(S)o2)cc(C(C)(C)C)c1O | 1.5 |  |  | 
2 | CC(C)(C)c1cc(Sc2nnc(S)s2)cc(C(C)(C)C)c1O | 3.6 |  |  | 
3 | CC(C)(C)c1cc(Sc2nnc(N)s2)cc(C(C)(C)C)c1O |  |  |  | inhibition [2]: < 40%; inhibition [3]: < 40%
4 | CC(C)(C)c1cc(Sc2nnc(O)o2)cc(C(C)(C)C)c1O |  | 1100 | < 40 | 
5 | CC(C)(C)c1cc(Sc2nnc(NC#N)s2)cc(C(C)(C)C)c1O | 6 | 3100 |  | 
6 | CC(C)(C)c1cc(Sc2nnc(O)s2)cc(C(C)(C)C)c1O |  |  | < 40 | inhibition [6]: 75%
